The values that follow come from ChEMBL document CHEMBL4619823, “Allosteric Modulation of Protein Arginine Methyltransferase 5 (PRMT5)” (ACS Med Chem Lett, 2020).

Each structure is given as a SMILES string.

PRMT5/MEP50 complex, sequence (O14744 whole entry): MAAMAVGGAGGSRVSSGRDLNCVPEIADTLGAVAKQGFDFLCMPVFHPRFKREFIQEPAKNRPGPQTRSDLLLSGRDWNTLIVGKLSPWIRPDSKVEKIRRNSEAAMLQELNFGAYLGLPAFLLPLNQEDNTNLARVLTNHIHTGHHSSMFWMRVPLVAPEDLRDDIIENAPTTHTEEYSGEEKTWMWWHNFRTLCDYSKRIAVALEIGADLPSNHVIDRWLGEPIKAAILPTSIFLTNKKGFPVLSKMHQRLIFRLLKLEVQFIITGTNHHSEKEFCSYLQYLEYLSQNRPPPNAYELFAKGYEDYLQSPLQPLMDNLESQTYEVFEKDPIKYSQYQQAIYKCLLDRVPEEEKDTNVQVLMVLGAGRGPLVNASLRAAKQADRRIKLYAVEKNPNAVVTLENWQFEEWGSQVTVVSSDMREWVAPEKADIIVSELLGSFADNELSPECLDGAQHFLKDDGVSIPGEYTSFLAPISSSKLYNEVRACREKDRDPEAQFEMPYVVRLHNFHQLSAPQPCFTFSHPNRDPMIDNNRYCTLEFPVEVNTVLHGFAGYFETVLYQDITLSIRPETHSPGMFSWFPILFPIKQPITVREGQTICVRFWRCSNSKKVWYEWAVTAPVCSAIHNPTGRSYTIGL
PRMT5/MEP50 complex, sequence (Q9BQA1 whole entry, further chain): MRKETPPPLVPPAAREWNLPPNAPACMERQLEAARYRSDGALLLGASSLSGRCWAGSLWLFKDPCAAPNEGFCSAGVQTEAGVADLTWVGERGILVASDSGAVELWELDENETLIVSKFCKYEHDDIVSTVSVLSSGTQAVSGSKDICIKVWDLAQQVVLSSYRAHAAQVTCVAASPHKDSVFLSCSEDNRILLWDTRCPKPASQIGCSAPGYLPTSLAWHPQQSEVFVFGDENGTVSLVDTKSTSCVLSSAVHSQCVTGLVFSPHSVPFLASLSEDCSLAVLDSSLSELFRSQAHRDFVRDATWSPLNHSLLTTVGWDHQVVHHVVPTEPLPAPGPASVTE

For the first test, the target named is PRMT5/MEP50 complex (Homo sapiens) (UniProt O14744+Q9BQA1). Nature of the test: Binding affinity to human biotinylated PRMT5/MEP50 assessed as association rate constant by SPR analysis. The format is protein-complex assay.
`COc1ccc([C@@]2(C34CC5CC(CC(C5)C3)C4)N=C(N)N(C)C2=O)cc1`: the Ka came out at 1000 M⁻¹ s⁻¹.

Another test concerns the target PRMT5/MEP50 complex (Homo sapiens, UniProt O14744). Nature of the test: Inhibition of recombinant Avi-tagged PRMT5 (2 to 637)/ His-tagged MEP50 (2 to 342) (unknown origin) expressed in baculovirus infected Sf21 cells using biotinylated H4R3 (Me1) peptide as substrate in presence of SAM preincubated for 60 mins followed by substrate addition after 150 mins by biochemical methylation assay.
Consider `COc1ccc([C@]2(C34CC5CC(CC(C5)C3)C4)N=C(N)N(C)C2=O)cc1`, for which the EC50 amounted to 3100 nM. The same measure, in the same setting: for `CN1C(=O)[C@](c2ccccc2)(C23CC4CC(CC(C4)C2)C3)N=C1N` the value was 12 nM; for `COc1ccc([C@@]2(C34CCC(CC3)CC4)N=C(N)N(C)C2=O)cc1`, 240 nM. Turning to `COc1ccc(C2(C34CC5CC(O)(CC(F)(C5)C3)C4)N=C(N)N(C)C2=O)cc1` (stereo not drawn), the EC50 is 620 nM. With `COc1ccc([C@@]2(C34CC5CC(CC(O)(C5)C3)C4)N=C(N)N(C)C2=O)cc1`, the EC50 is 220 nM. For `CN1C(=O)[C@@](CCC2CCCCC2)(c2ccccc2)N=C1N`, the EC50 was found to be 50 nM. For `CN1C(=O)[C@](c2ccc3ccccc3c2)(C23CC4CC(CC(C4)C2)C3)N=C1N`, the EC50 worked out at 90 nM. For `COc1cccc([C@@]2(C34CC5CC(CC(C5)C3)C4)N=C(N)N(C)C2=O)c1`, the EC50 was 56 nM.

On to `CCC1CCN2C(=O)[C@](c3ccccc3)(C34CC5CC(CC(C5)C3)C4)N=C2N1` (stereo partly drawn), for which the EC50 was 68 nM. Same read-out and setting: for `CC1CCN2C(=O)[C@](c3ccccc3)(C34CC5CC(CC(C5)C3)C4)N=C2N1` (stereo partly drawn) the value was 66 nM. For the compound `COc1ccc([C@@]2(C34CC5CC(CC(C5)C3)C4)N=C(N)N(C)C2=O)cc1`, the EC50 was 16 nM.

The target in a further test is Protein arginine N-methyltransferase 5 (Homo sapiens, UniProt O14744). The test can be described thus: Inhibition of PRMT5 in human MCF7 cells assessed as reduction in symmetrically dimethylated nuclear protein level incubated for 3 days by Alexafluor-488 conjugate anti-rabbit antibody/DAPI staining based IN cell analyzer method.
Protein arginine N-methyltransferase 5, sequence (O14744 whole entry): as the sequence (O14744 whole entry) above
For the compound `COc1ccc([C@@]2(C34CC5CC(CC(C5)C3)C4)N=C(N)N(C)C2=O)cc1`, the EC50 came out at 4600 nM.
